Assay results taken from patent publication US20180022780A1, “STABILIZATION ADRENOMEDULLIN DERIVATIVES AND USE THEREOF” (priority 2014, published 2018).
Bridge positions count the residues as written; N and C are the ends. Square brackets hold non-standard residues; d marks the D form. Ends that are not written are not given here. Peptide text beside a SMILES is read from it. * marks the point of attachment. X1 = CN(C)c1ccc2c(c1)Oc1cc(N(C)C)ccc1C21OC(=O)c2ccc(C(=O)*)cc21; Palmitoyl = CCCCCCCCCCCCCCCC(=O)*; NMeK = CN[C@@H](CCCCN)C(=O)O; Dap = NC[C@H](N)C(=O)O

Legend:
[1] = tested on: receptor in rat spleen membranes; conditions: cited from earlier work
[2] = tested on: guinea pig atria; conditions: cited from earlier work
[3] = tested on: mean arterial blood pressure; conditions: doses of ≦300 μg/kg body weight; reference WO 2013/064508 A1; cited from earlier work
[4] = only at −80° C. under argon atmosphere; cited from earlier work
[5] = Stability in human blood plasma (TAM-labeled analogues); format: in vitro ADME; conditions: 10E-5 M, 37° C., two phase decay, N-terminally TAM-labeled analogues, read-out: HalfLife (Slow) (converted)
Description: FIG. 3: Stability of peptides in plasma calculated with GraphPad Prism 5 (GraphPad Software) using two phase decay analysis for the determination of half-life (slow) (Test 1e). N-terminally 6-carboxytetramethylrhodamine-(TAM)-labeled analogues of Control: TAM[G^14]ADM(14-52); Example 18: TAM[K^14(PAM), (Dpr^16, E^21)lac]ADM(14-52); and Example 27: TAM[K^14(PAM), (Dpr^16, E^21)lac, Nα-Me-K^46]ADM(14-52).
The stability of the peptides was investigated using N-terminally 6-carboxytetramethylrhodamine-(TAM)-labeled analogues.
Fluorescently labeled ADM analogues were prepared by using solid phase peptide synthesis (SPPS) as described before (general method for peptide synthesis). Manual coupling of 6-carboxytetramethylrhodamine (TAM) to the N-terminus of the peptides was carried out with a 3-fold molar excess of the fluorescence dye, 2-(1H-benzotriazol-1-yl)-1,1,3,3-tetramethyluronium hexafluorophosphate (HBTU) and N,N-Diisopropylethylamine (DIPEA) in DMF under constant shaking for 24 h the resin as described recently (Bohme D., Beck-Sickinger A. G. ChemMedChem 2015, 10: 804-14). The identity of the peptides was confirmed by mass spectrometry with an MALDI-MS (UltraflexIII, Bruker) and an ESI-MS (HCT, Bruker). The observed masses were in correspondence to the calculated masses.
The peptides were dissolved in 1.5 ml of human blood plasma to a concentration of 10E-5 M and incubated at 37° C. under constant shaking. […] The samples were analyzed by RP-HPLC using a Varian VariTide RPC column (particle size 6 μm; pore size 200 Å; 250×4.6 mm) with linear gradients of 0.1% TFA in water and 0.08% TFA in ACN; fluorescence emission was detected at λ=573 nm. The percentage of intact peptide was determined by peak integration. […] The stability of the peptides was calculated with GraphPad Prism 5 (GraphPad Software) using a two phase exponential decay function for the determination of slow-decay phase half-lives (ln(2)/Kslow; Kslow: rate constant of slow part of exponential decay) (Table 3 and FIG. 3).

## cyclo [Asp^2, Lys^7]-CGRP
[1]
  decrease in affinity to the receptor: 50%
[2]
  biological activity (agonist function): loss of agonist function

## adrenomedullin (human) [wt ADM]
[3]
  duration of blood pressure reduction: ≤ 4 h

## amylin-(1-8) (KCNTATCA; ends and bridges not checked; cysteine pairing not given here; UniProt P10997 34-41, looked up, fragment) [native octapeptide amylin (1-8), literature]
[4]
  time stable on storage: 6 month

## CCCCCCCCCCCCCCCC(=O)NCCCC[C@H](NC(=O)c1ccc2c(c1)C1(OC2=O)c2ccc(N(C)C)cc2Oc2cc(N(C)C)ccc21)C(=O)NCC(=O)N[C@H]1CNC(=O)CC[C@@H](C(=O)N[C@H](C(=O)N[C@H](C(=O)N[C@@H](CCC(N)=O)C(=O)N[C@@H](CCCCN)C(=O)N[C@@H](CC(C)C)C(=O)N[C@@H](C)C(=O)N[C@@H](Cc2c[nH]cn2)C(=O)N[C@@H](CCC(N)=O)C(=O)N[C@H](C(=O)N[C@@H](Cc2ccc(O)cc2)C(=O)N[C@@H](CCC(N)=O)C(=O)N[C@@H](Cc2ccccc2)C(=O)N[C@H](C(=O)N[C@@H](CC(=O)O)C(=O)N[C@@H](CCCCN)C(=O)N[C@@H](CC(=O)O)C(=O)N[C@@H](CCCCN)C(=O)N[C@@H](CC(=O)O)C(=O)N[C@@H](CC(N)=O)C(=O)N[C@H](C(=O)N[C@@H](C)C(=O)N2CCC[C@H]2C(=O)N[C@@H](CCCNC(=N)N)C(=O)N[C@@H](CO)C(=O)N(C)[C@@H](CCCCN)C(=O)N[C@H](C(=O)N[C@@H](CO)C(=O)N2CCC[C@H]2C(=O)N[C@@H](CCC(N)=O)C(=O)NCC(=O)N[C@@H](Cc2ccc(O)cc2)C(N)=O)[C@@H](C)CC)C(C)C)[C@@H](C)O)[C@@H](C)CC)C(C)C)[C@@H](C)O)NC(=O)[C@H]([C@@H](C)O)NC(=O)CNC(=O)[C@H](Cc2ccccc2)NC(=O)[C@H](CCCNC(=N)N)NC1=O [TAM-27, TAM[K^14(PAM), (Dpr^16, E^21)lac, Nα-Me-K^46]ADM(14-52)] (X1-K(Palmitoyl)G[Dap]RFGTETVQKLAHQIYQFTDKDKDNVAPRS[NMeK]ISPQGY-NH2; lactam 3-8)
[5]
  half-life at 0.0001 M: > 96 h
